This is an account of results in patent US20040167103A1, “Haloacetamide and azide substituted compounds and methods of use thereof” (priority 2003, published 2004).

Experiment [1] concerns the target T1, cytosolic AR prepared from rat ventral prostates (Rattus norvegicus, UniProt P15207).
T1 construct: cytosolic AR prepared from rat ventral prostates; from tissue; host or cells: rat ventral prostate cytosol
T1 sequence (P15207 1-902): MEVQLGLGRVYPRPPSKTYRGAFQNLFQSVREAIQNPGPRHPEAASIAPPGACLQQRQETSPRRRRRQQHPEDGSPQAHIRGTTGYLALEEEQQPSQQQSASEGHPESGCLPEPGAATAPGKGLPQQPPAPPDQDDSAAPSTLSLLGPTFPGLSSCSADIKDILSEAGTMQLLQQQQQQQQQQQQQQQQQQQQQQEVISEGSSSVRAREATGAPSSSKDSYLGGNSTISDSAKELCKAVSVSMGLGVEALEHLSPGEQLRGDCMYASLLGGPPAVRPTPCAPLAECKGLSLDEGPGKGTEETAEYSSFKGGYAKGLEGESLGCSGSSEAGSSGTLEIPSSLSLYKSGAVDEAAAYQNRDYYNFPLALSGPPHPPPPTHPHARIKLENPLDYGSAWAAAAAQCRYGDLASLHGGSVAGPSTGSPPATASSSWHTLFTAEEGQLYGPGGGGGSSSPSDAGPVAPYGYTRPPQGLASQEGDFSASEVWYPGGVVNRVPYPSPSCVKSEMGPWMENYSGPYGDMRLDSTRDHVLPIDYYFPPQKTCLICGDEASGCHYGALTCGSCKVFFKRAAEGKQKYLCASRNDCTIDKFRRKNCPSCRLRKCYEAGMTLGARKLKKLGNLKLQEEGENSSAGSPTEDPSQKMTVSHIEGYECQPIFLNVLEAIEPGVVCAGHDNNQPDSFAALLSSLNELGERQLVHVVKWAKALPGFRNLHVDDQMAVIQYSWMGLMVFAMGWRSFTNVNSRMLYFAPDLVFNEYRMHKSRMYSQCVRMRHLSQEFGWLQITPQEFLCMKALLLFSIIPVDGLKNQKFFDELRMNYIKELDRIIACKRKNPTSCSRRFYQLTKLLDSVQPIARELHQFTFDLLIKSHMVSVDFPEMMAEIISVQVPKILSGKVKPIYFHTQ
Put plainly: Androgen receptor radioligand competitive binding assay (3H-mibolerone). The method, then:
The AR binding affinity of test compounds was determined by a radioligand competitive binding assay with cytosolic AR prepared from rat ventral prostates. […] After incubation, the protein-bound radioactivity was separated from free radioactivity by HAP precipitation. The bound radioactivity was then extracted from HAP by ethanol, and counted in a Beckman LS6800 liquid scintillation counter (Beckman Instruments Inc., Palo Alto, Calif.). Nonspecific binding was determined separately by including 1,000 nM of unlabeled MIB in the incubate. The binding data was fitted to the equation B=B0*[1-C/(IC50+C)] using WinNonlin.

Experiment [2] relates to prostate cancer cell lines DU 145, PC-3, TSU, PPC-1 and LNCaP. Nature of the experiment: Cell growth inhibition (sulforhodamine B assay), five prostate cancer cell lines together. Particulars: statement in words. In kind it is cell-based, human. The method, then: (§1) Prostate cancer cell lines were obtained from ATCC. All cells were grown in RPMI-1640 medium containing 2 mM L-glutamine supplemented with 10% fetal bovine serum (FBS) and maintained in a 5% CO2/95% air humidified atmosphere at 37° C.
(§2) Cells were plated on 96-well plates and incubated with drug-containing culture medium (200 μL/well) for 4 (DU 145, PC-3, PPC-1, and TSU) or 6 (LNCaP) days. Medium was replaced with freshly prepared batches every other day during the incubation. At the end of drug treatment, an aliquot of 50 μL of cold (4° C.) trichloroacetic acid (TCA, 50%) was gently layered on the top of growth medium in each well to make a final TCA concentration of 10%. […] The cellular protein-bound SRB was then dissolved with 200 μL unbuffered Tris base (10 mM, pH 10.5) for 30 minutes on a rocking platform shaker, and absorbance at 540 nm was measured by a plate reader.
(§3) Percentage of cell survival was calculated by absorbance at 540 nm in testing wells divided by absorbance in negative control wells (medium without the test compound). […]
(§4) METHODS: LNCaP, DU145, PC-3, TSU, and PPC-1 cells were cultured in 96-well plates and treated with increasing concentrations of the compound of interest for 4 days. Cell survival was determined by the sulforhodamine B assay and was plotted as a percentage of control (drug-free wells) versus drug concentration. […]

Experiment [3] has as its system LNCaP cells. Nature of the experiment: TUNEL assay (apoptosis, DNA fragmentation). Type of experiment: cell-based, human. Particulars: LNCaP cells exposed for 24 hours, relative to 0.1% DMSO vehicle control. The method, then: METHODS: DNA fragmentation of apoptotic cells was monitored by the TUNEL assay as described by the supplier. Briefly, LNCaP cells were plated at 2×10^5 cells/well in 2-well chamber slides and incubated at 37° C., 5% CO2 for 24 h to allow the cells sufficient time to attach and be in log phase growth at the start of the experiment. The media was aspirated and replaced with media containing vehicle control (DMSO) or drug dissolved in DMSO. The total volume of DMSO/drug added to each well was equal to 0.1% of the media volume in each well. LNCaP cells were treated with vehicle control, and increasing concentrations of Compound 1 and Compound 2 (0.1, 1.0, and 10.0 μM) for 24-48 h. Two wells were treated with the same concentration of the drugs or DMSO for each treatment condition listed above. The media was collected along with the trypsinized cells and centrifuged at 150×g for 4 min. […] Green and red fluorescence emissions were observed microscopically using 520 nm and >620 nm filters, respectively.
RESULTS: The TUNEL assay is used to determine whether cells are undergoing apoptosis (cell death mechanism) as a result of drug treatment. […] TUNEL assay incorporates a dye that labels the 3′ ends of such DNA fragments which are then visualized by fluorescence. […]

For experiment [4], the system named is LNCaP cells. Put plainly: Cell growth inhibition (sulforhodamine B assay), LNCaP. Particulars: for Sensitivity of LNCaP cells compared with other cell lines: LNCaP the only androgen receptor expressing cell line tested; for IC50: Homo sapiens, LNCaP, SRB assay. Type of experiment: cell-based, human. The method, then: as §1
Cells were plated on 96-well plates and incubated with drug-containing culture medium (200 μL/well) for 4 (DU 145, PC-3, PPC-1, and TSU) or 6 (LNCaP) days. Medium was replaced with freshly prepared batches every other day during the incubation. At the end of drug treatment, an aliquot of 50 μL of cold (4° C.) trichloroacetic acid (TCA, 50%) was gently layered on the top of growth medium in each well to make a final TCA concentration of 10%. The mixtures were incubated at 4° C. for 1 hour, and then washed 5 times with tap water to remove TCA, growth medium, low-molecular-weight metabolites, and serum proteins. The plates were air dried overnight. Next, fixed cells were stained with 50 μL of SRB solution (0.4%, wt/vol) for 10 minutes. After staining, SRB solution was decanted, and plates were quickly rinsed 5 times with 1% acetic acid to remove unbound dye and air dried overnight. The cellular protein-bound SRB was then dissolved with 200 μL unbuffered Tris base (10 mM, pH 10.5) for 30 minutes on a rocking platform shaker, and absorbance at 540 nm was measured by a plate reader.
Percentage of cell survival was calculated by absorbance at 540 nm in testing wells divided by absorbance in negative control wells (medium without the test compound). Percentages of cell survival versus drug concentrations were plotted and the concentration of drug that inhibited cell growth by 50% (IC50) was determined by nonlinear regression using WinNonlin (Pharsight Corporation, Mountain View, Calif.).
METHODS: LNCaP, DU145, PC-3, TSU, and PPC-1 cells were cultured in 96-well plates and treated with increasing concentrations of the compound of interest for 4 days. Cell survival was determined by the sulforhodamine B assay and was plotted as a percentage of control (drug-free wells) versus drug concentration. The concentration of drug that inhibited cell growth by 50% (IC50) was determined by non-linear regression. Known anticancer drugs were used as cytotoxic positive controls.
On the technique in general: Sulforhodamine B stains cellular protein and so reports cell mass.

Experiment [5] has as its system LNCaP cells. Put plainly: Growth curve (trypan blue cell count, 120 h), LNCaP compared with other lines. In kind it is cell-based, human. The method, then:
METHODS: Cells were plated at 5-10×10^4 cells/well in five 6-well plates and incubated at 37° C., 5% CO2 for 24 h to allow the cells sufficient time to attach and be in log phase growth at the start of the experiment. The media was aspirated from four of the plates and replaced with media containing vehicle control (DMSO) or drug dissolved in DMSO. The total volume of DMSO/drug added to each well was equal to 0.1% of the media volume in each well. LNCaP, PC-3, MCF-7, and CV-1 cells were treated with vehicle control, and increasing concentrations of Compound 1 and Compound 2 (0.01, 0.05, 0.1, 0.5, 1.0, 5.0, and 10.0 μM). Three wells were treated with the same concentration of the drugs or DMSO for each treatment condition listed above. The cells from the remaining 6-well plate were collected and counted to determine plating efficiency. The 6-well plates containing DMSO/drug were incubated for 120 h at 37° C., 5% CO2. After 120 h, the media from each well was collected along with trypsinized cells and centrifuged at 150×g for 4 min. The cells were resuspended in 1 mL of media, from which 90 μl was taken and combined with 10 μl trypan blue for counting on a hemacytometer.

Experiment [6] deals with PC-3 cells. Put plainly: Cell growth inhibition (sulforhodamine B assay), PC-3. Type of experiment: cell-based. The settings on record: Homo sapiens, PC-3, 96 h, SRB assay, 4 days treatment. The method, then: as §1, §2, §3, §4
For experiment [7], the system named is DU 145 cells. Nature of the experiment: Cell growth inhibition (sulforhodamine B assay), DU145. In kind it is cell-based. The settings on record: Homo sapiens, DU-145, 96 h, SRB assay, 4 days treatment. The method, then:
as §1, §2, §3, §4

In experiment [8] the test system is PPC-1 cells. Nature of the experiment: Cell growth inhibition (sulforhodamine B assay), PPC-1. In kind it is cell-based. Particulars: Homo sapiens, PPC-1, 96 h, SRB assay, 4 days treatment. The method, then: as §1, §2, §3, §4
In experiment [9] the test system is TSU cells. Nature of the experiment: Cell growth inhibition (sulforhodamine B assay), TSU. In kind it is cell-based. Particulars: Homo sapiens, 96 h, SRB assay, 4 days treatment. The method, then: as §1, §2, §3, §4

Each structure is given as a SMILES string.

`C[C@@H]1CC2=CC(=O)CC[C@@H]2[C@H]2CC[C@@]3(C)[C@@H](CC[C@]3(C)O)[C@@H]21` [Compound 3H-MIB, 3H-mibolerone]: the Kd (commonly the equilibrium constant for the complex coming apart) in [1] (determined in preliminary experiments, read-out: Kd, equilibrium dissociation constant of 3H-MIB) amounted to 0.19 ± 0.01 nM.
As to `C[C@](O)(COc1ccc(NC(=O)CCl)cc1)C(=O)Nc1ccc([N+](=O)[O-])c(C(F)(F)F)c1` [Compound 2], the “IC50 values in inhibiting the growth of all five prostate cancer cell lines” value in [2] is reported as “low micro-molar range”. Besides, in [3], the “Apoptosis, DNA fragmentation (green fluorescence)” value is “similar”. For the same molecule, the “Sensitivity of LNCaP cells compared with other cell lines” value in experiment [4] is on record as “not more sensitive”. For the same molecule, the “Fold sensitivity of LNCaP cells over PC-3 or CV-1 cells” value in [5] (growth curve) was “approximately 10 fold”. Also, the inhibitory constant (Ki) (usually a measure of affinity in units of concentration, obtained from inhibition or displacement) in experiment [1] came out at 1.9 ± 0.3 nM.
`N[C@@H](Cc1ccc(N(CCCl)CCCl)cc1)C(=O)O` [Melphalan]: the IC50 (commonly the midpoint of a concentration-inhibition curve) turned out to be 30.4 ± 3.1 nM in experiment [6] (Melphalan line, unit nM); 31 nM in experiment [7] (Melphalan line, unit nM); 10.3 nM in [4] (4 or 6 days treatment, Melphalan line, unit nM); 16.2 nM in [8] (Melphalan line, unit nM); 4 ± 0.2 nM in experiment [9] (Melphalan line, unit nM).
Turning to `C[C@](O)(COc1ccc(NC(=O)CBr)cc1)C(=O)Nc1ccc([N+](=O)[O-])c(C(F)(F)F)c1` [Compound 1], the “IC50 values in inhibiting the growth of all five prostate cancer cell lines” value in experiment [2] is on record as “low micro-molar range”. Moreover, the “Apoptosis, DNA fragmentation (green fluorescence)” value in experiment [3] is given as “exhibit green fluorescence”. The “Sensitivity of LNCaP cells compared with other cell lines” value in [4] is reported as “not more sensitive”. Also, the “Growth inhibitory activity against various cancer cell lines” value in experiment [5] (LNCaP versus PC-3, MCF-7 and CV-1 cells, 0.01-10.0 μM) was “non-selective growth inhibitory activity”. The inhibition constant (Ki) in [1] worked out at 13.9 ± 1.4 nM.
As for `C[C@@](O)(CBr)C(=O)Nc1ccc([N+](=O)[O-])c(C(F)(F)F)c1` [S-NTBA], the IC50 in experiment [6] was found to be 3100 ± 500 nM; in experiment [7], 4700 ± 300 nM; in experiment [4] (4 days or 6 days treatment) it was 1300 ± 200 nM; in experiment [8], 2200 ± 200 nM; in experiment [9], 3500 ± 200 nM.
